Ends that are not written are not given here.
Experiments:
[1] = test system: isolated guinea pig gallbladder; experiment: Isolated guinea pig gallbladder assay (contraction, % CCK-induced maximal response); conditions: for % contraction at 30 µM: read-out: % Contraction (30 μM), expressed as % CCK-induced maximal response
Method: 3. GUINEA PIG GALL BLADDER ASSAY
Gallbladders are removed from guinea pigs sacrificed by cervical dislocation. The isolated gallbladders are cleaned of adherent connective tissue and cut into two rings from each animal (2-6 mm in length). […] Tissues are connected via gold chains and stainless steel mounting wires to isometric force displacement transducers (Grass, Model FT03 D). Responses are then recorded on a polygraph (Grass, Model 7E).
Rings are gradually stretched (over a 120 min. period) to a basal resting tension of 1 gm which is maintained throughout the experiment. During the basal tension adjustment period, the rings are exposed to acetylcholine (10^-6 M) four times to verify tissue contractility. The tissues are then exposed to a submaximal dose of sulfated CCK-8 (Sigma, 3×10^-9 M). After obtaining a stable response, the tissues are washed out 3 times rapidly and every 5 to 10 minutes for 1 hour to reestablish a stable baseline.
As a final test, ACH (10 μM) is added to induce maximal contraction.

rat gastric emptying = experiment: Rat gastric emptying assay (methyl cellulose/phenol red test meal); format: in vivo; conditions: vehicle 66
Method: 7. RAT GASTRIC EMPTYING PROTOCOL
Methyl Cellulose (MC) Test Meal
1. Disperse MC in water at 80° C. at a final concentration of 1.5% under continuous stirring. Cool to room temperature.
2. Add Phenol Red (50 mg/100) to solution.
3. Keep solution stirring during entire experiment.
1. Food deprive animals for 18 hours.
2. Inject test drug/prop. glycol or prop. glycol alone intraperitoneally.
3. After 5 minutes, gavage 1.5 mL of Pheno Red/MC solution
1. After 20 minutes, decapitate animal
2. Clamp stomach at the pylorus and cardia ends, and rinse in 0.9% NaCl.
3. Place stomach in 100 mL of 0.1N NaOH, cut into small pieces, and homogenize for 30 seconds.
4. Let settle at room temperature for 60 minutes.
5. In centrifuge tube, add 5 mL of supernatant and 0.5 mL of trichloroacetic acid (29% w/v), and centrifuge at 2,800 rpm for 20 minutes.
6. Decant supernatant, and add 4 mL of 0.5N NaOH and read absorbance at a wavelength of 560 nm.
The standard stomach is determined from the phenol red recovered in stomachs of rats decapitated immediately after intragastric infusion of MC/phenol red.

[2] = literature background; cited from earlier work
[3] = intraperitoneally at 0.1 μmoles/kg

## COc1ccc(N(C(=O)CN2C(=O)C(Cc3n[nH]c4ccccc34)C(=O)N(c3ccccn3)c3ccccc32)C(C)C)cc1 (centres unmarked) [CCK-A agonist 2, reference compound]
[1]; Cavia porcellus, Table 2, delivered at 30 μM
  % contraction: 100%
Rat gastric emptying; [3]
  rat gastric emptying: % emptying: 2.5%

## COc1ccc(N(C(=O)CN2C(=O)C(Cc3n[nH]c4ccccc34)C(=O)N(c3ccccc3)c3ccccc32)C(C)C)cc1 (centres unmarked) [CCK-A agonist 1, 2[3(1H-Indazol-3-ylmethyl)-2,4-dioxo-5-phenyl-2,3,4,5-tetrahydro-benzo[b]1,4]diazepin1-ylN-isopropyl-N-(4-methoxy-phenyl) acetamide, reference compound]
[1]; Cavia porcellus, Table 2, delivered at 3 μM
  % contraction: 87%
Rat gastric emptying; [3]
  rat gastric emptying: % emptying: 6%

## CCK-8: CCK8 is the Cterminal octapeptide of CCK (DYMGWMDF; ends and bridges not checked; UniProt P06307 96-103, looked up) [reference compound]
[1]; Table 2, CCK-8 delivered at 1 μM
  Isolated guinea pig gallbladder: % contraction: 100%
Rat gastric emptying; CCK-8 intraperitoneally at 30 nmoles/kg
  rat gastric emptying: % emptying: 0%

## CC(C)N(C(=O)CN1C(=O)C(NC(=O)c2cc3ccccc3n2CC(=O)O)N=C(c2ccccc2)c2ccccc21)c1ccccc1 (centres unmarked) [Example 15, {2-[1-(Isopropyl-phenyl-carbamoylmethyl)-2-oxo-5-phenyl-2,3-dihydro-1H-benzo[e][1,4]diazepin-3-ylcarbamoyl]-indol-1-yl}-acetic acid]
[1]; Cavia porcellus, Table 1
  % contraction at 30 µM: 52%

## COc1ccc(N(C(=O)CN2C(=O)C(NC(=O)Nc3cccc(C(=O)O)c3)N=C(c3ccccc3)c3ccccc32)C(C)C)cc1 (centres unmarked) [Example 8, 3-(3-{1-[Isopropyl-(4-methoxy-phenyl)-carbamoylmethyl]-2-oxo-5-phenyl-2,3-dihydro-1H-benzo[e][1,4]diazepin-3yl}-ureido)-benzoic acid]
[1]; Cavia porcellus, Table 1, 1 μM, read-out: % Contraction (1 μM), expressed as % CCK-induced maximal response
  % contraction at 1 µM: 59%
[1]; Cavia porcellus, Table 1
  % contraction at 30 µM: 86%

## CC(C)N(C(=O)CN1C(=O)C(NC(=O)Nc2cccc(-c3nn[nH]n3)c2)N=C(c2ccccc2)c2ccccc21)c1ccccc1 (centres unmarked) [Example 1, 1N-Isopropyl-2-(2-oxo-5-phenyl-3-{3-[3-(1H-tetrazol-5-yl)-phenyl]-ureido}-2,3-dihydro-benzo[e][1,4]diazepin-1-yl)-N-phenyl-acetamide]
[1]; Cavia porcellus, Table 1
  % contraction at 30 µM: 63%

B1: CCK: a peptide found in the gastrointestinal tract and the central nervous system (peptide, UniProt P06307 21-115, looked up)
Cholecystokinin: QPVPPADPAGSGLQRAEEAPRRQLRVSQRTDGESRAHLGALLARYIQQARKAPSGRMSIVKNLQNLDPSHRISDRDYMGWMDFGRRSAEEYEYPS
modifications: Cholecystokinin
notes: a peptide found in the gastrointestinal tract and the central nervous system
[2]
  inhibition of gastric emptying in humans: inhibit gastric emptying in humans
